Laboratory results from patent US4855489A, “2-acyloxypropylamino derivatives, processes for the preparation thereof, and pharmaceutical compositions containing them” (Goedecke Aktiengesellschaft, priority 1986, dated 1989).
Structures can show the parent of a compound that is named as a salt.

Assays:
protein kinase C (PKC) = system: T1, protein kinase C (PKC); experiment: Inhibition of PS/DO-mediated protein kinase C activity (32P incorporation into histone H-1); format: biochemical, chicken; settings: activity with PKC activators and without test substance = 100%; for inhibition at 10 µM: test substance 10^-5 mol/l; for inhibition at 100 µM: test substance 10^-4 mol/l; for inhibition at 1 µM: test substance 10^-6 mol/l
T1 construct: this enzyme activity was enriched, starting from a chicken gizzard extract; from tissue; host or cells: chicken gizzard
Source text: 1. Inhibition of the enzyme protein kinase C. For the elucidation of the inhibiting influence of the compounds according to the present invention of general formula (I) on the calcium- and phospholipid-dependent protein kinase (PKC), this enzyme activity was enriched, starting from a chicken gizzard extract. The two-step procedure according to purification steps described in the literature (J. Biol. Chem., 260, 15718-15722/1985) utilized the property of the enzyme of binding in the presence of calcium to cell membranes and again dissolving off by calcium chelators (EGTA). In the first purification step, there took place the binding of the PKC to membranes of the chicken gizzard extract and, in the second step, to the so-called inside out vesicles of erythrocytes. After dissolving from the erythrocyte membranes and rebuffering, the PKC preparation was present in 10 mM HEPES, 1 mM DTT and 0.1% PEG 20,000 (pH 7.5) and, under these conditions, it could be stored for several months at -70° C. without loss of activity. The activity of the enzyme was determined via the incorporation of phosphorus 32-labelled phosphate into the protein histon H-1, which is phosphorylatable by PKC. The test thereby contained the following components: 50 mM HEPES (pH 7.5), 1 mM DTT, 5 mM magnesium chloride, about 10 μM free calcium ions, 200 μg/ml histone, 5 μg/ml phosphatidylserine, 1 μg/ml 1,2-diolein, 10 μuM ATP, in each case an appropriate amount of PKC preparation and optionally a test substance. The kinase activity measured under standard conditions in the presence of PKC activators (and without test substance) was, in each case, taken as being 100% and the inhibitory action of the compounds of general formula (I) referred thereto as a percentage.

[1] = system: gel-filtered human thrombocytes; experiment: Inhibition of OAG-induced platelet aggregation (aggregometer); format: cell-based; settings: 3 min preincubation, OAG 5×10^-5 M, human platelets; for inhibition at 10 µM: test substance 10^-5 mol/l; for inhibition at 100 µM: test substance 10^-4 mol/l; for inhibition at 1 µM: test substance 10^-6 mol/l
Method: 2. Influence of the compound of Example 1 on platelet aggregation stimulated by oleoylacetylglycerol.
For carrying out the aggregation experiments, use was made of gel-filtered human thrombocytes. These were prepared in the following way: after centrifuging human blood for 15 minutes at 60 xg, the supernatant, i.e., the platelet-rich plasma, was used for the gel filtration. By means of the gel filtration through a column packed with Sepharose CL-2B, the platelets were transferred into a calcium-free, defined buffer medium (15 mM tris, 150 mM sodium chloride, 5.5 mM glucose, 0.2% bovine serum albumin; pH 7.4). Subsequently, the platelets were recalcified to a concentration of 7×10^-4 M calcium. The platelets were then incubated at 37° C. in an aggregometer and, after initiation of the aggregation by a stimulus, the decrease of the absorption was determined as a measure of the aggregation. As aggregation-initiating stimulus, there was used 1-oleoyl-2-acetylglycerol (OAG), an activator of the enzyme protein kinase C (J. Biol. Chem., 258, 6701-6704/1983) in a concentration of 5×10^-5 M. The aggregation achieved under these conditions was taken as being 100% control. The carrying out of the experiments on the influence of the compound of Example 1 on the OAG-stimulated aggregation took place in the following way: the platelets were first incubated for 3 minutes with the compound of Example 1 at the given concentration and subsequently the aggregation was initiated with OAG. The reduced extent of the aggregation was, in each case, calculated as a percentage of the 100% control. The results obtained are set out in Table 1 as well.

Structure (SMILES) | inhibition at 10 µM (protein kinase C (PKC)) [%] | inhibition at 100 µM (protein kinase C (PKC)) [%] | inhibition at 1 µM (protein kinase C (PKC)) [%] | further results
CCCCCCCCCCCCCCCCCCOCC(CN1CCCCC1)OC(C)=O (racemic) [Example 1.a, (±)-1-octadecyloxy-3-piperidino-2-propyl acetate hydrochloride] |  | 25 |  | inhibition at 100 µM [1]: 54%
CCCOCC(CN(C)C)OC(=O)CC (racemic) [Example 1.c, (±)-3-dimethylamino-1-propoxy-2-propyl propionate oxalate] |  | 9 |  | 
CCCCCCCCCCCCCCCCCCOCC(CN(Cc1ccccc1)Cc1ccccc1)OC(C)=O (racemic) [Example 1.b, (±)-3-dibenzylamino-1-octadecyloxy-2-propyl acetate hydrochloride] | 22 |  |  | 
CCCCCCCC/C=C\CCCCCCCCOCC(CN(C)C)OC(C)=O (racemic) [Example 1.m, (±)-3-dimethylamino-1-(9-cis-octadecenyloxy)-2-propyl acetate hydrochloride] | 48 |  | 14 | 
CCCCCCCCCCCCCCCCCCOCC(CN1CCNCC1C)OC(C)=O (stereo not shown) [Example 1.d, 1-(2-methyl)-piperazinyl-3-octadecyloxy-2-propyl acetate oxalate] | 61 |  | 18 | inhibition at 3 µM ([1]; test substance 3 × 10^-6 mol/l): 14%; inhibition at 10 µM [1]: 100%; inhibition at 1 µM [1]: 0%
CCCCCCCCCCCCCCC(C)OCC(CN(C)C)OC(C)=O (racemic) [Example 1.l, (±)-3-dimethylamino-1-(2-hexadecyloxy)-2-propyl acetate hydrochloride] | 31 |  |  | 
CCCCCCCCCCCCCCCCCCSCC(CN(C)C)OC(C)=O (racemic) [Example 3, (±)-3-Dimethylamino-1-octadecylthio-2-propyl acetate hydrochloride] | 22 | 70 |  | 

Now from value to compound, other results behind:

inhibition at 10 µM (protein kinase C (PKC)) [%] | inhibition at 100 µM (protein kinase C (PKC)) [%] | inhibition at 1 µM (protein kinase C (PKC)) [%] | Structure (SMILES) | further results
39 |  |  | CCCCCCCCCCCCCCCCCCCCOCC(CN(C)C)OC(C)=O (racemic) [Example 1.g, (±)-3-dimethylamino-1-eicosanyloxy-2-propyl acetate hydrochloride] | inhibition at 10 µM [1]: 53%
18 | 44 |  | CCCCCCCCCCCCCCCCCCOCC(CN)OC(C)=O (racemic) [Example 2, (±)-3-Amino-1-octadecyloxy-2-propyl acetate hydrochloride] | 
61 | 86 | 24 | CCCCCCCCCCCCCCCCCCOCC(CN(C)C)OC(C)=O (racemic) [Example 1, (±)-3-Dimethylamino-1-octadecyloxy-2-propyl acetate hydrochloride] | inhibition at 100 µM [1]: 100%; inhibition at 10 µM [1]: 48%; inhibition at 1 µM [1]: 2%
27 |  |  | CCCCCCCCCCCCCCCCOCC(CN(C)C)OC(C)=O (racemic) [Example 1.f, (±)-3-dimethylamino-1-hexadecyloxy-2-propyl acetate hydrochloride] | 
14 |  |  | CCCCCCCCCCCCCCOCC(CN(C)C)OC(C)=O (racemic) [Example 1.e, (±)-3-dimethylamino-1-tetradecyloxy-2-propyl acetate hydrochloride] | 
35 |  | 13 | CCCCCCCCCCCCCCCCCCOCC(CNC)OC(C)=O (racemic) [Example 2.a, (±)-3-methylamino-1-octadecyloxy-2-propyl acetate hydrochloride] | 
